Reference: patent US8822517B2, “Arylosulfonamides for the treatment of CNS diseases” (Adamed SP. Z O.O., priority 2010, dated 2014)

Key:
[1] = molecular target: T1, serotonine transporter (SERT) receptor (Homo sapiens, UniProt P31645); assay: Binding assay SERT (h), [3H]imipramine, CHO cells; settings: for inhibition at 1 µM: read-out: SERT [%]
T1 construct: expressed in transfected cells; host or cells: CHO cells
Experimental: (§1) The specific ligand binding to the receptors is defined as the difference between the total binding and the nonspecific binding determined in the presence of an excess of so unlabelled ligand.
(§2) The specific Ligand binding to the receptor is defined as the difference between total and non-specific binding determined in the presence of an excess of unlabelled ligand. The compounds were tested at a concentration of 1×10^−6 M, and scintillation counting was the method of detection of ligand binding.

adrenergic α1 receptor = assay: Binding assay α1 (non-selective), [3H]prazosin, rat cerebral cortex; settings: percent inhibition of control specific binding; compounds tested at 1×10^−6 M
Experimental: as §1, §2

dopaminergic D3 receptor = dopaminergic D3 receptor (Homo sapiens, UniProt P35462); assay: Binding assay D3 (h), [3H]methyl-spiperone, CHO cells; parameters: expressed in transfected cells; host or cells: CHO cells; settings: for inhibition at 1 µM: read-out: D3 [%]
Chain of dopaminergic D3 receptor (P35462 whole entry): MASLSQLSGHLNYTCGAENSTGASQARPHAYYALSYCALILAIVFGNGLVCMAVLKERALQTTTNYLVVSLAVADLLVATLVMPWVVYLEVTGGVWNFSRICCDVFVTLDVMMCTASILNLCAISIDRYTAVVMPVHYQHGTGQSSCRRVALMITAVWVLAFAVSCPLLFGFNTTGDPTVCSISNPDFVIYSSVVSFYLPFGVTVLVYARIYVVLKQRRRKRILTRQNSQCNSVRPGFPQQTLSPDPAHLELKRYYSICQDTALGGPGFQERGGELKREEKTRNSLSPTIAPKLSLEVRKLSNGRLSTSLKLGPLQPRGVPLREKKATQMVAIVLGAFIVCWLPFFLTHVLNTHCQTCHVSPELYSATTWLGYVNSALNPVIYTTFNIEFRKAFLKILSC
Experimental: as §1, §2

[2] = molecular target: serotoninergic 5-HT6 receptor (Homo sapiens, UniProt P50406); assay: Binding assay 5-HT6 (h), [3H]LSD, CHO cells; parameters: expressed in transfected cells; host or cells: CHO cells; settings: for inhibition at 1 µM: read-out: 5-HT6
Chain of serotoninergic 5-HT6 receptor (P50406 whole entry): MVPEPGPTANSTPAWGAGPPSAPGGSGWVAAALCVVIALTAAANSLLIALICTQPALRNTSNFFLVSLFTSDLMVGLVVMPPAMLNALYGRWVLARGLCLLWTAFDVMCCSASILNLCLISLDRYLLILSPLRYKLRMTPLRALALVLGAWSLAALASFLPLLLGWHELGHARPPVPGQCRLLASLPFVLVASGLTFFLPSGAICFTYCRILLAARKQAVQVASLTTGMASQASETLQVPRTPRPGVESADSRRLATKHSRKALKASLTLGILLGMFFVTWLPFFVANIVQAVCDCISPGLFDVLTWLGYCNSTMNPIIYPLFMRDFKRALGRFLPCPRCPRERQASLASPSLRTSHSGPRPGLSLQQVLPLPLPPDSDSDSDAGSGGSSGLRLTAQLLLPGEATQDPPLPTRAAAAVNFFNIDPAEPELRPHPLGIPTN
Experimental: as §1, §2

[3] = molecular target: serotoninergic 5-HT7 receptor (Homo sapiens, UniProt P34969); assay: Binding assay 5-HT7 (h), [3H]LSD, CHO cells; parameters: expressed in transfected cells; host or cells: CHO cells; settings: for inhibition at 1 µM: read-out: 5-HT7
Chain of serotoninergic 5-HT7 receptor (P34969 whole entry): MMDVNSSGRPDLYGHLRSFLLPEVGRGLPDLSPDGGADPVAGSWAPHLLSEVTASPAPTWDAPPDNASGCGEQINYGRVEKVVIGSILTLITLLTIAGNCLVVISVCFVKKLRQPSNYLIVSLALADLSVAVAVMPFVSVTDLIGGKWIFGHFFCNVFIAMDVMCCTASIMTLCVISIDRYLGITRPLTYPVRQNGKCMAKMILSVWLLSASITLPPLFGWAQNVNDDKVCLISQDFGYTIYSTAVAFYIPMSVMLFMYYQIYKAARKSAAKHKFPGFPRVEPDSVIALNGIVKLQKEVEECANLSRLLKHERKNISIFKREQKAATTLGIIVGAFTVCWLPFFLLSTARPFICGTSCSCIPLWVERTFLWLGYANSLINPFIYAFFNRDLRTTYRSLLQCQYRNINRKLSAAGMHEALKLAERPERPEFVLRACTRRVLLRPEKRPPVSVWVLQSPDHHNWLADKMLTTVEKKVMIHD
Experimental: as §1, §2

dopaminergic D2 receptor = dopaminergic D2 receptor (Homo sapiens, UniProt P14416); assay: Binding assay D2S (h), [3H]methyl-spiperone, HEK-293 cells; parameters: expressed in transfected cells; host or cells: HEK-293 cells; settings: for inhibition at 1 µM: read-out: D2 [%]
Chain of dopaminergic D2 receptor (P14416 1-414 isoform P14416-2): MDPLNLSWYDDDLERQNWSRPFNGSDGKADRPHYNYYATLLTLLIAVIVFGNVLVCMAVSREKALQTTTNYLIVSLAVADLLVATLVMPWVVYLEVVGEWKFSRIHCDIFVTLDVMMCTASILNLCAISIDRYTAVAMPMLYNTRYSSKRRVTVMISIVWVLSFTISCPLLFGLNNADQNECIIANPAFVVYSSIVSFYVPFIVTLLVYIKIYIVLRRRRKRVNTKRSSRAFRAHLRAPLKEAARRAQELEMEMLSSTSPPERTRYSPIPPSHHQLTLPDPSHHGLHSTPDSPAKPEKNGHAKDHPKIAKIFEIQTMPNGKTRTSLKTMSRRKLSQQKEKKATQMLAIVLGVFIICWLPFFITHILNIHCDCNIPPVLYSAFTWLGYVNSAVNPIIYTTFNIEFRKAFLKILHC
Experimental: as §1, §2

[4] = molecular target: T2, serotoninergic 5-HT1A receptor (Homo sapiens, UniProt P08908); assay: Binding assay 5-HT1A (h), [3H]8-OH-DPAT, HEK-293 cells; parameters: expressed in transfected cells; host or cells: HEK-293 cells; settings: for inhibition at 1 µM: read-out: 5-HT1A
T2 sequence (P08908 1-422): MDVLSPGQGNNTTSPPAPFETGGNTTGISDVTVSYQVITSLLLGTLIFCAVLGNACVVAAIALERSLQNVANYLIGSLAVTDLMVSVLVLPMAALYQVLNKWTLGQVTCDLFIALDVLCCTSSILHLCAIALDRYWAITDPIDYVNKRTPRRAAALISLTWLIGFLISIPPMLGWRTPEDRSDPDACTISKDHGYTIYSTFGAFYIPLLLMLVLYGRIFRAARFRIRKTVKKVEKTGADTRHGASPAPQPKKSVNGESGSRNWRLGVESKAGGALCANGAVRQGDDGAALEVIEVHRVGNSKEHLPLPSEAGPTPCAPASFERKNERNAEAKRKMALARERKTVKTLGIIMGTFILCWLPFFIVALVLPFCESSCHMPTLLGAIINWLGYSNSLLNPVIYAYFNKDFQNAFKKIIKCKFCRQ
Experimental: as §1, §2

[5] = molecular target: serotoninergic 5-HT2A receptor (Homo sapiens, UniProt P28223); assay: Binding assay 5-HT2A (h), [3H]ketanserin, HEK-293 cells; parameters: expressed in transfected cells; host or cells: HEK-293 cells; settings: for inhibition at 1 µM: read-out: 5-HT2A
Chain of serotoninergic 5-HT2A receptor (P28223 whole entry): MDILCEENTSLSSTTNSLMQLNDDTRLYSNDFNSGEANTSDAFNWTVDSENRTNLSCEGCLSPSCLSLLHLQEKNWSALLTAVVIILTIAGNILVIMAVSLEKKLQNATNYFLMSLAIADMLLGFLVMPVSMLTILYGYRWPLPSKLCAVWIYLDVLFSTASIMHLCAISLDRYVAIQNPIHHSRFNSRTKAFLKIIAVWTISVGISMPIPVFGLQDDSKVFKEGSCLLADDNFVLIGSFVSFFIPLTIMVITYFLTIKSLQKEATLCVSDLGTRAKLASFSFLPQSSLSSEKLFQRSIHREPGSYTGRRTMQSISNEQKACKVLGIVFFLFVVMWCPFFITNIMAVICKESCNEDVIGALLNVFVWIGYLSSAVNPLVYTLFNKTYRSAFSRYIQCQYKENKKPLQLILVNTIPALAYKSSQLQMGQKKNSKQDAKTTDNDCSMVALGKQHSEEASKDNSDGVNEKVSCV
Experimental: as §1, §2

[6] = percent inhibition of control specific binding, compounds tested at 1×10^−6 M

T1 sequence (P31645 whole entry): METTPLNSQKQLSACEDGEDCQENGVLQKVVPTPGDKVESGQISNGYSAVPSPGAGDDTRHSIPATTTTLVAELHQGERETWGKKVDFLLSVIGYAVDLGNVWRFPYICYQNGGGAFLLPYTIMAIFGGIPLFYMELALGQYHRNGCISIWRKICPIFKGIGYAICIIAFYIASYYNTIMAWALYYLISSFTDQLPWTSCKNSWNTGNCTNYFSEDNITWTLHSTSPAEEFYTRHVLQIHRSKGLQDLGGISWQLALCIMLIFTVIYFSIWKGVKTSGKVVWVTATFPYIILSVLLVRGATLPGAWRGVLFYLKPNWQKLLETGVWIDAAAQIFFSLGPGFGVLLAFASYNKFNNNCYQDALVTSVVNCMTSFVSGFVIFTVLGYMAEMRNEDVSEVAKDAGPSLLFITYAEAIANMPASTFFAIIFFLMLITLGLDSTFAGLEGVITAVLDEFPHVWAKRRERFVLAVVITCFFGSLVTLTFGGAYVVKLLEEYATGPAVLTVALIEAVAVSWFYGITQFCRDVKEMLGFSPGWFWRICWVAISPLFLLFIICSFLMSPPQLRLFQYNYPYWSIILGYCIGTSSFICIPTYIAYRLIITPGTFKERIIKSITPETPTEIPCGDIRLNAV

In the case of COc1ccc(S(=O)(=O)NCCCCN2CC=C(c3c[nH]c4ccc(Cl)cc34)CC2)cc1 [Compound 42, 4-Methoxy-N{4-[4-(5-chloro-1H-indol-3-yl)-3,6-dihydropyridin-1(2H)-yl]butyl}benzenesulphonamide], the “SERT [%]” value [1, 6] is reported as 96%, the “α1 [%]” value (adrenergic α1 receptor) is reported as 77% and the “D3 [%]” value (dopaminergic D3 receptor; [6]) is reported as 101%. For the same molecule, the 5-HT6 [2, 6] was 96%, the 5-HT7 [3, 6] was 76% and the “D2 [%]” value (dopaminergic D2 receptor; [6]) was 74%. For the same molecule, the 5-HT1A [4, 6] was 90% and the 5-HT2A [5, 6] was 77%.

For O=S(=O)(NCCCN1CCN(c2nsc3ccccc23)CC1)c1ccc2cc(Cl)ccc2c1 [Compound 62, N-[3-[4-(1,2-Benzothiazol-3-yl)piperazin-1-yl]propyl]-6-chloro-naphthalene-2-sulphonamide], the inhibition at 1 µM [1] was 15%, the “α1 [%]” value (adrenergic α1 receptor) was 61% and the inhibition at 1 µM (dopaminergic D3 receptor) was 63%. It also gave an inhibition at 1 µM [2] of 69%, an inhibition at 1 µM [3] of 78% and an inhibition at 1 µM (dopaminergic D2 receptor) of 92%. It also gave an inhibition at 1 µM [4] of 46% and an inhibition at 1 µM [5] of 101%.

For O=S(=O)(NCCCCN1CCN(c2nsc3ccccc23)CC1)c1cccc(Cl)c1 [Compound 69, N-[4-[4-(1,2-Benzothiazol-3-yl)piperazin-1-yl]butyl]-3-chlorobenzenesulphonamide], the inhibition at 1 µM [1] was 6%, the “α1 [%]” value (adrenergic α1 receptor) was 94% and the inhibition at 1 µM (dopaminergic D3 receptor) was 77%. It also gave an inhibition at 1 µM [2] of 88%, an inhibition at 1 µM [3] of 96% and an inhibition at 1 µM (dopaminergic D2 receptor) of 106%. For the same molecule, the inhibition at 1 µM [4] was 80% and the inhibition at 1 µM [5] was 92%.

O=S(=O)(NCCCCN1CCN(c2nsc3ccccc23)CC1)c1cccc(F)c1 [Compound 71, N-[4-[4-(1,2-Benzothiazol-3-yl)piperazin-1-yl]butyl]-3-fluorobenzenesulphonamide] was tested, and the inhibition at 1 µM [1] was 41%, the “α1 [%]” value (adrenergic α1 receptor) was 99% and the inhibition at 1 µM (dopaminergic D3 receptor) was 91%. For the same molecule, the inhibition at 1 µM [2] was 76%, the inhibition at 1 µM [3] was 99% and the inhibition at 1 µM (dopaminergic D2 receptor) was 103%. The inhibition at 1 µM [4] was 89% and the inhibition at 1 µM [5] was 94%.

O=S(=O)(NCCCN1CCN(c2nsc3ccccc23)CC1)c1cccc(F)c1 [Compound 72, N-[3-[4-(1,2-Benzothiazol-3-yl)piperazin-1-yl]propyl]-3-fluorobenzenesulphonamide] was tested, and the inhibition at 1 µM [1] was 44%, the “α1 [%]” value (adrenergic α1 receptor) was 93% and the inhibition at 1 µM (dopaminergic D3 receptor) was 95%. For the same molecule, the inhibition at 1 µM [2] was 78%, the inhibition at 1 µM [3] was 101% and the inhibition at 1 µM (dopaminergic D2 receptor) was 99%. It also gave an inhibition at 1 µM [4] of 95% and an inhibition at 1 µM [5] of 94%.

In the case of N#Cc1cccc(S(=O)(=O)NCCCCN2CCN(c3nsc4ccccc34)CC2)c1 [Compound 73, N-[4-[4-(1,2-Benzothiazol-3-yl)piperazin-1-yl]butyl]-3-cyanobenzenesulphonamide], the inhibition at 1 µM [1] is reported as 37%, the “α1 [%]” value (adrenergic α1 receptor) is reported as 98% and the inhibition at 1 µM (dopaminergic D3 receptor) is reported as 94%. The inhibition at 1 µM [2] was 82%, the inhibition at 1 µM [3] was 91% and the inhibition at 1 µM (dopaminergic D2 receptor) was 102%. It also gave an inhibition at 1 µM [4] of 92% and an inhibition at 1 µM [5] of 81%.

In the case of O=S(=O)(NCCCN1CCN(c2nsc3ccccc23)CC1)c1cnc2ccccn12 [Compound 76, N-[3-[4-(1,2-Benzothiazol-3-yl)piperazin-1-yl]propyl]imidazo[1,2-a]pyridine-3-sulphonamide], the inhibition at 1 µM [1] is reported as 15%, the “α1 [%]” value (adrenergic α1 receptor) is reported as 95% and the inhibition at 1 µM (dopaminergic D3 receptor) is reported as 71%. For the same molecule, the inhibition at 1 µM [2] was 70%, the inhibition at 1 µM [3] was 86% and the inhibition at 1 µM (dopaminergic D2 receptor) was 94%. It also gave an inhibition at 1 µM [4] of 90% and an inhibition at 1 µM [5] of 81%.

In the case of O=S(=O)(NCCCCN1CCN(c2noc3ccccc23)CC1)c1cccc(Cl)c1 [Compound 85, N-[4-[4-(1,2-Benzoxazol-3-yl)piperazin-1-yl]butyl]-3-chlorobenzenesulphonamide], the inhibition at 1 µM [1] is reported as 2%, the “α1 [%]” value (adrenergic α1 receptor) is reported as 98% and the inhibition at 1 µM (dopaminergic D3 receptor) is reported as 77%. For the same molecule, the inhibition at 1 µM [2] was 77%, the inhibition at 1 µM [3] was 99% and the inhibition at 1 µM (dopaminergic D2 receptor) was 100%. It also gave an inhibition at 1 µM [4] of 54% and an inhibition at 1 µM [5] of 88%.

With O=S(=O)(NCCCCN1CCN(c2noc3ccccc23)CC1)c1cccc(F)c1 [Compound 87, N-[4-[4-(1,2-Benzoxazol-3-yl)piperazin-1-yl]butyl]-3-fluorobenzenesulphonamide] the inhibition at 1 µM [1] was 2%, the “α1 [%]” value (adrenergic α1 receptor) was 98% and the inhibition at 1 µM (dopaminergic D3 receptor) was 77%. For the same molecule, the inhibition at 1 µM [2] was 67%, the inhibition at 1 µM [3] was 90% and the inhibition at 1 µM (dopaminergic D2 receptor) was 87%. The inhibition at 1 µM [4] was 41% and the inhibition at 1 µM [5] was 89%.

For O=S(=O)(NCCCCN1CCN(c2noc3ccccc23)CC1)c1cccc(C(F)(F)F)c1 [Compound 91, N-[4-[4-(1,2-Benzoxazol-3-yl)piperazin-1-yl]butyl]-3-(trifluoromethyl)benzenesulphonamide], the inhibition at 1 µM [1] was 2%, the “α1 [%]” value (adrenergic α1 receptor) was 99% and the inhibition at 1 µM (dopaminergic D3 receptor) was 70%. The inhibition at 1 µM [2] was 83%, the inhibition at 1 µM [3] was 99% and the inhibition at 1 µM (dopaminergic D2 receptor) was 92%. The inhibition at 1 µM [4] was 40% and the inhibition at 1 µM [5] was 95%.

With O=S(=O)(NCCCCN1CCN(c2noc3ccccc23)CC1)c1ccc(Cl)c(Cl)c1 [Compound 93, N-[4-[4-(1,2-Benzoxazol-3-yl)piperazin-1-yl]butyl]-3,4-dichlorobenzenesulphonamide] the inhibition at 1 µM [1] was 0%, the “α1 [%]” value (adrenergic α1 receptor) was 97% and the inhibition at 1 µM (dopaminergic D3 receptor) was 86%. It also gave an inhibition at 1 µM [2] of 92%, an inhibition at 1 µM [3] of 88% and an inhibition at 1 µM (dopaminergic D2 receptor) of 98%. It also gave an inhibition at 1 µM [4] of 48% and an inhibition at 1 µM [5] of 90%.

With O=S(=O)(NCCCCN1CCC(c2noc3cc(F)ccc23)CC1)c1cccc(Cl)c1 [Compound 105, 3-Chloro-N-[4-[4-(6-fluoro-1,2-benzoxazol-3-yl)piperidin-1-yl]butyl]benzenesulphonamide] the inhibition at 1 µM [1] was -11%, the “α1 [%]” value (adrenergic α1 receptor) was 96% and the inhibition at 1 µM (dopaminergic D3 receptor) was 88%. The inhibition at 1 µM [2] was 87%, the inhibition at 1 µM [3] was 85% and the inhibition at 1 µM (dopaminergic D2 receptor) was 107%. It also gave an inhibition at 1 µM [4] of 41% and an inhibition at 1 µM [5] of 91%.

In the case of O=S(=O)(NCCCCN1CCC(c2noc3cc(F)ccc23)CC1)c1cccc(F)c1 [Compound 107, 3-Fluoro-N-[4-[4-(6-fluoro-1,2-benzoxazol-3-yl)piperidin-1-yl]butyl]benzenesulphonamide], the inhibition at 1 µM [1] is reported as -12%, the “α1 [%]” value (adrenergic α1 receptor) is reported as 100% and the inhibition at 1 µM (dopaminergic D3 receptor) is reported as 97%. It also gave an inhibition at 1 µM [2] of 75%, an inhibition at 1 µM [3] of 91% and an inhibition at 1 µM (dopaminergic D2 receptor) of 104%. It also gave an inhibition at 1 µM [4] of 38% and an inhibition at 1 µM [5] of 95%.

For O=S(=O)(NCCCN1CCC(c2noc3cc(F)ccc23)CC1)c1cccc(F)c1 [Compound 108, 3-Fluoro-N-[3-[4-(6-fluoro-1,2-benzoxazol-3-yl)piperidin-1-yl]propyl]benzenesulphonamide], the inhibition at 1 µM [1] was -9%, the “α1 [%]” value (adrenergic α1 receptor) was 100% and the inhibition at 1 µM (dopaminergic D3 receptor) was 98%. For the same molecule, the inhibition at 1 µM [2] was 86%, the inhibition at 1 µM [3] was 90% and the inhibition at 1 µM (dopaminergic D2 receptor) was 106%. For the same molecule, the inhibition at 1 µM [4] was 48% and the inhibition at 1 µM [5] was 88%.

Cc1[nH]c2ccc(Cl)cc2c1C1=CCN(CCNS(=O)(=O)c2cccc(F)c2)CC1 [Compound 450, N-[2-[4-(5-Chloro-2-methyl-1H-indol-3-yl)-3,6-dihydro-2H-pyridin-1-yl]ethyl]-3-fluorobenzenesulphonamide] was tested, and the inhibition at 1 µM [1] was 54%, the “α1 [%]” value (adrenergic α1 receptor) was −1% and the inhibition at 1 µM (dopaminergic D3 receptor) was 39%. The inhibition at 1 µM [2] was 96%, the inhibition at 1 µM [3] was 50% and the inhibition at 1 µM (dopaminergic D2 receptor) was 15%.

With Cc1[nH]c2ccc(Cl)cc2c1C1=CCN(CCNS(=O)(=O)c2ccc(Cl)cc2)CC1 [Compound 451, 4-Chloro-N-[2-[4-(5-chloro-2-methyl-1H-indol-3-yl)-3,6-dihydro-2H-pyridin-1-yl]ethyl]-benzensulphonamide] the inhibition at 1 µM [1] was 32%, the “α1 [%]” value (adrenergic α1 receptor) was −4% and the inhibition at 1 µM (dopaminergic D3 receptor) was 30%. It also gave an inhibition at 1 µM [2] of 97%, an inhibition at 1 µM [3] of 25% and an inhibition at 1 µM (dopaminergic D2 receptor) of 46%.

Cc1[nH]c2ccc(Cl)cc2c1C1=CCN(CCNS(=O)(=O)c2cccc(O)c2)CC1 [Compound 453, N-[2-[4-(5-Chloro-2-methyl-1H-indol-3-yl)-3,6-dihydro-2H-pyridin-1-yl]ethyl]-3-hydroxybenzenesulphonamide] was tested, and the inhibition at 1 µM [1] was 23%, the “α1 [%]” value (adrenergic α1 receptor) was 23% and the inhibition at 1 µM (dopaminergic D3 receptor) was 56%. The inhibition at 1 µM [2] was 107%, the inhibition at 1 µM [3] was 76% and the inhibition at 1 µM (dopaminergic D2 receptor) was 48%.
